# In patent publication US8192962B2, “Processes for detecting toxic substances” (Daikin Industries, Ltd., priority 2001, dated 2012):
# System: Genes belonging to other category
# Assay: DNA chip mRNA expression in yeast, genes belonging to other category (Table 9)
# Assay type: cell-based, Saccharomyces cerevisiae S288C
# How it was run: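 Ratios compare mRNA levels in stressed and control S. cerevisiae. Each toxicant was applied for two hours to log-phase cultures at 25° C. at a sub-lethal, growth-inhibiting level; fluorescent cDNA (Cy3- or Cy5-dUTP) was hybridized to a genome-wide yeast chip for over 12 h at 65° C.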
smiles,measurement,setting,value
"CN(C)C(=S)SSC(=S)N(C)C [(10), Tetramethylthiuram disulfide]",The level of expressed mRNA in the presence of chemical substance/The level of expressed mRNA in the absence of chemical substance,yeast gene YJR058C,2.6
same,The level of expressed mRNA in the presence of chemical substance/The level of expressed mRNA in the absence of chemical substance,yeast gene YJR086W,1.1
same,The level of expressed mRNA in the presence of chemical substance/The level of expressed mRNA in the absence of chemical substance,yeast gene YJR110W,2.3
same,The level of expressed mRNA in the presence of chemical substance/The level of expressed mRNA in the absence of chemical substance,yeast gene YJR123W,0.5
same,The level of expressed mRNA in the presence of chemical substance/The level of expressed mRNA in the absence of chemical substance,yeast gene YKL007W,2.4
same,The level of expressed mRNA in the presence of chemical substance/The level of expressed mRNA in the absence of chemical substance,yeast gene YKL008C,0.4
same,The level of expressed mRNA in the presence of chemical substance/The level of expressed mRNA in the absence of chemical substance,yeast gene YKL013C,1.4
same,The level of expressed mRNA in the presence of chemical substance/The level of expressed mRNA in the absence of chemical substance,yeast gene YKL039W,3.3
same,The level of expressed mRNA in the presence of chemical substance/The level of expressed mRNA in the absence of chemical substance,yeast gene YKL041W,1.5
same,The level of expressed mRNA in the presence of chemical substance/The level of expressed mRNA in the absence of chemical substance,yeast gene YKL079W,2.0
same,The level of expressed mRNA in the presence of chemical substance/The level of expressed mRNA in the absence of chemical substance,yeast gene YKL096W,0.5
same,The level of expressed mRNA in the presence of chemical substance/The level of expressed mRNA in the absence of chemical substance,yeast gene YKL117W,2.1
same,The level of expressed mRNA in the presence of chemical substance/The level of expressed mRNA in the absence of chemical substance,yeast gene YKL139W,1.5
same,The level of expressed mRNA in the presence of chemical substance/The level of expressed mRNA in the absence of chemical substance,yeast gene YKL165C,0.4
same,The level of expressed mRNA in the presence of chemical substance/The level of expressed mRNA in the absence of chemical substance,yeast gene YKL171W,1.8
same,The level of expressed mRNA in the presence of chemical substance/The level of expressed mRNA in the absence of chemical substance,yeast gene YKL193C,1.6
same,The level of expressed mRNA in the presence of chemical substance/The level of expressed mRNA in the absence of chemical substance,yeast gene YKR014C,2.0
same,The level of expressed mRNA in the presence of chemical substance/The level of expressed mRNA in the absence of chemical substance,yeast gene YKR098C,2.7
same,The level of expressed mRNA in the presence of chemical substance/The level of expressed mRNA in the absence of chemical substance,yeast gene YLL050C,1.0
same,The level of expressed mRNA in the presence of chemical substance/The level of expressed mRNA in the absence of chemical substance,yeast gene YLL051C,1.8
same,The level of expressed mRNA in the presence of chemical substance/The level of expressed mRNA in the absence of chemical substance,yeast gene YLR120C,1.6
same,The level of expressed mRNA in the presence of chemical substance/The level of expressed mRNA in the absence of chemical substance,yeast gene YLR121C,2.0
same,The level of expressed mRNA in the presence of chemical substance/The level of expressed mRNA in the absence of chemical substance,yeast gene YLR136C,6.0
same,The level of expressed mRNA in the presence of chemical substance/The level of expressed mRNA in the absence of chemical substance,yeast gene YLR178C,4.1
same,The level of expressed mRNA in the presence of chemical substance/The level of expressed mRNA in the absence of chemical substance,yeast gene YLR200W,2.6
same,The level of expressed mRNA in the presence of chemical substance/The level of expressed mRNA in the absence of chemical substance,yeast gene YLR250W,2.4
same,The level of expressed mRNA in the presence of chemical substance/The level of expressed mRNA in the absence of chemical substance,yeast gene YLR266C,2.6
same,The level of expressed mRNA in the presence of chemical substance/The level of expressed mRNA in the absence of chemical substance,yeast gene YLR327C,8.3
same,The level of expressed mRNA in the presence of chemical substance/The level of expressed mRNA in the absence of chemical substance,yeast gene YLR340W,0.5
same,The level of expressed mRNA in the presence of chemical substance/The level of expressed mRNA in the absence of chemical substance,yeast gene YLR356W,1.6
same,The level of expressed mRNA in the presence of chemical substance/The level of expressed mRNA in the absence of chemical substance,yeast gene YLR362W,3.3
same,The level of expressed mRNA in the presence of chemical substance/The level of expressed mRNA in the absence of chemical substance,yeast gene YLR391W,0.7
same,The level of expressed mRNA in the presence of chemical substance/The level of expressed mRNA in the absence of chemical substance,yeast gene YLR423C,1.0
same,The level of expressed mRNA in the presence of chemical substance/The level of expressed mRNA in the absence of chemical substance,yeast gene YLR429W,1.3
same,The level of expressed mRNA in the presence of chemical substance/The level of expressed mRNA in the absence of chemical substance,yeast gene YML130C,4.2
same,The level of expressed mRNA in the presence of chemical substance/The level of expressed mRNA in the absence of chemical substance,yeast gene YMR004W,3.4
same,The level of expressed mRNA in the presence of chemical substance/The level of expressed mRNA in the absence of chemical substance,yeast gene YMR094W,0.9
same,The level of expressed mRNA in the presence of chemical substance/The level of expressed mRNA in the absence of chemical substance,yeast gene YMR104C,3.2
same,The level of expressed mRNA in the presence of chemical substance/The level of expressed mRNA in the absence of chemical substance,yeast gene YMR110C,1.6
same,The level of expressed mRNA in the presence of chemical substance/The level of expressed mRNA in the absence of chemical substance,yeast gene YMR214W,1.0
same,The level of expressed mRNA in the presence of chemical substance/The level of expressed mRNA in the absence of chemical substance,yeast gene YMR219W,0.9
same,The level of expressed mRNA in the presence of chemical substance/The level of expressed mRNA in the absence of chemical substance,yeast gene YMR226C,2.2
same,The level of expressed mRNA in the presence of chemical substance/The level of expressed mRNA in the absence of chemical substance,yeast gene YMR255W,2.4
same,The level of expressed mRNA in the presence of chemical substance/The level of expressed mRNA in the absence of chemical substance,yeast gene YMR275C,2.1
same,The level of expressed mRNA in the presence of chemical substance/The level of expressed mRNA in the absence of chemical substance,yeast gene YMR276W,1.7
same,The level of expressed mRNA in the presence of chemical substance/The level of expressed mRNA in the absence of chemical substance,yeast gene YMR297W,1.0
same,The level of expressed mRNA in the presence of chemical substance/The level of expressed mRNA in the absence of chemical substance,yeast gene YMR314W,2.7
same,The level of expressed mRNA in the presence of chemical substance/The level of expressed mRNA in the absence of chemical substance,yeast gene YNL006W,4.0
same,The level of expressed mRNA in the presence of chemical substance/The level of expressed mRNA in the absence of chemical substance,yeast gene YNL007C,1.7
same,The level of expressed mRNA in the presence of chemical substance/The level of expressed mRNA in the absence of chemical substance,yeast gene YNL083W,1.6
same,The level of expressed mRNA in the presence of chemical substance/The level of expressed mRNA in the absence of chemical substance,yeast gene YNL093W,2.0
same,The level of expressed mRNA in the presence of chemical substance/The level of expressed mRNA in the absence of chemical substance,yeast gene YNL135C,0.5
same,The level of expressed mRNA in the presence of chemical substance/The level of expressed mRNA in the absence of chemical substance,yeast gene YNL139C,0.7
same,The level of expressed mRNA in the presence of chemical substance/The level of expressed mRNA in the absence of chemical substance,yeast gene YNL333W,2.1
same,The level of expressed mRNA in the presence of chemical substance/The level of expressed mRNA in the absence of chemical substance,yeast gene YNR010W,0.9
same,The level of expressed mRNA in the presence of chemical substance/The level of expressed mRNA in the absence of chemical substance,yeast gene YNR069C,5.8
same,The level of expressed mRNA in the presence of chemical substance/The level of expressed mRNA in the absence of chemical substance,yeast gene YOL013C,1.0
same,The level of expressed mRNA in the presence of chemical substance/The level of expressed mRNA in the absence of chemical substance,yeast gene YOL038W,2.7
same,The level of expressed mRNA in the presence of chemical substance/The level of expressed mRNA in the absence of chemical substance,yeast gene YOL164W,3.6
same,The level of expressed mRNA in the presence of chemical substance/The level of expressed mRNA in the absence of chemical substance,yeast gene YOR028C,2.0
same,The level of expressed mRNA in the presence of chemical substance/The level of expressed mRNA in the absence of chemical substance,yeast gene YOR036W,1.9
same,The level of expressed mRNA in the presence of chemical substance/The level of expressed mRNA in the absence of chemical substance,yeast gene YOR058C,4.5
same,The level of expressed mRNA in the presence of chemical substance/The level of expressed mRNA in the absence of chemical substance,yeast gene YOR117W,1.8
same,The level of expressed mRNA in the presence of chemical substance/The level of expressed mRNA in the absence of chemical substance,yeast gene YOR124C,1.9
same,The level of expressed mRNA in the presence of chemical substance/The level of expressed mRNA in the absence of chemical substance,yeast gene YOR132W,1.6
same,The level of expressed mRNA in the presence of chemical substance/The level of expressed mRNA in the absence of chemical substance,yeast gene YOR149C,1.0
same,The level of expressed mRNA in the presence of chemical substance/The level of expressed mRNA in the absence of chemical substance,yeast gene YOR157C,2.6
same,The level of expressed mRNA in the presence of chemical substance/The level of expressed mRNA in the absence of chemical substance,yeast gene YOR181W,0.5
same,The level of expressed mRNA in the presence of chemical substance/The level of expressed mRNA in the absence of chemical substance,yeast gene YOR185C,2.9
same,The level of expressed mRNA in the presence of chemical substance/The level of expressed mRNA in the absence of chemical substance,yeast gene YOR198C,1.4
same,The level of expressed mRNA in the presence of chemical substance/The level of expressed mRNA in the absence of chemical substance,yeast gene YOR259C,1.5
same,The level of expressed mRNA in the presence of chemical substance/The level of expressed mRNA in the absence of chemical substance,yeast gene YOR261C,2.5
same,The level of expressed mRNA in the presence of chemical substance/The level of expressed mRNA in the absence of chemical substance,yeast gene YOR285W,2.9
same,The level of expressed mRNA in the presence of chemical substance/The level of expressed mRNA in the absence of chemical substance,yeast gene YOR288C,1.0
same,The level of expressed mRNA in the presence of chemical substance/The level of expressed mRNA in the absence of chemical substance,yeast gene YOR298W,1.0
same,The level of expressed mRNA in the presence of chemical substance/The level of expressed mRNA in the absence of chemical substance,yeast gene YOR355W,0.8
same,The level of expressed mRNA in the presence of chemical substance/The level of expressed mRNA in the absence of chemical substance,yeast gene YOR383C,4.5
same,The level of expressed mRNA in the presence of chemical substance/The level of expressed mRNA in the absence of chemical substance,yeast gene YPL001W,1.0
same,The level of expressed mRNA in the presence of chemical substance/The level of expressed mRNA in the absence of chemical substance,yeast gene YPL020C,1.6
same,The level of expressed mRNA in the presence of chemical substance/The level of expressed mRNA in the absence of chemical substance,yeast gene YPL089C,2.5
same,The level of expressed mRNA in the presence of chemical substance/The level of expressed mRNA in the absence of chemical substance,yeast gene YPL109C,1.5
same,The level of expressed mRNA in the presence of chemical substance/The level of expressed mRNA in the absence of chemical substance,yeast gene YPL124W,1.0
same,The level of expressed mRNA in the presence of chemical substance/The level of expressed mRNA in the absence of chemical substance,yeast gene YPL149W,3.7
same,The level of expressed mRNA in the presence of chemical substance/The level of expressed mRNA in the absence of chemical substance,yeast gene YPL154C,1.7
same,The level of expressed mRNA in the presence of chemical substance/The level of expressed mRNA in the absence of chemical substance,yeast gene YPL177C,1.0
same,The level of expressed mRNA in the presence of chemical substance/The level of expressed mRNA in the absence of chemical substance,yeast gene YPL220W,0.5
same,The level of expressed mRNA in the presence of chemical substance/The level of expressed mRNA in the absence of chemical substance,yeast gene YPL230W,2.7
same,The level of expressed mRNA in the presence of chemical substance/The level of expressed mRNA in the absence of chemical substance,yeast gene YPR081C,2.6
same,The level of expressed mRNA in the presence of chemical substance/The level of expressed mRNA in the absence of chemical substance,yeast gene YPR103W,2.0
same,The level of expressed mRNA in the presence of chemical substance/The level of expressed mRNA in the absence of chemical substance,yeast gene YPR108W,2.8
same,The level of expressed mRNA in the presence of chemical substance/The level of expressed mRNA in the absence of chemical substance,yeast gene YPR149W,1.8
same,The level of expressed mRNA in the presence of chemical substance/The level of expressed mRNA in the absence of chemical substance,yeast gene YPR168W,2.7
